Results published in US8324280B2, “Treatment of prostate cancer with DDC inhibitor” (The University of British Columbia, priority 2008, dated 2012).

How the values were obtained:
[1] = molecular target: T1, DDC (Rattus norvegicus, UniProt P14173); test: Dopamine ELISA on conditioned medium of PC12 cells; format: cell-based; conditions: 1 μM NSD-1015, 24 hours
T1 construct: PC12 cells were not transfected or treated with R1881 but were incubated 24 hours with or without NSD-1015; endogenous in cells; host or cells: PC12 rat adrenal pheochromocytoma cells
T1 sequence (P14173 1-480): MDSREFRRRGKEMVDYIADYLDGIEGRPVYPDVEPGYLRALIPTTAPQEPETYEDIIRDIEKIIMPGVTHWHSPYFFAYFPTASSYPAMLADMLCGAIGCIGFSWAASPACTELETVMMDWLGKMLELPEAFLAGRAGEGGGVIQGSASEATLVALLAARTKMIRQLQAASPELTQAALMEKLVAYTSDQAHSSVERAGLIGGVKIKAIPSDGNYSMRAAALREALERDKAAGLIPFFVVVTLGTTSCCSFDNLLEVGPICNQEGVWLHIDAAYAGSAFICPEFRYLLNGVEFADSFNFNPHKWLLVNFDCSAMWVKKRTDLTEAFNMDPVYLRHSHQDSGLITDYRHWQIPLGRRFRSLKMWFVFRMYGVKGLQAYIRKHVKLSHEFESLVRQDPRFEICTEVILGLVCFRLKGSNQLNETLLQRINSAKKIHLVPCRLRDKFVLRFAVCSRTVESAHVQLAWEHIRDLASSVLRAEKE
Procedure: (§1) PC3 cells were seeded in 12-well plates at a density of 1.5×10^5 cells/well and transfected the following day with pcDNA3.1-AR and pDEST12.2-DDC or pDEST12.2 empty vector control, as described above for transactivation assays. The next day, media was changed to 5% DCC-FBS containing 1 nM R1881. Conditioned culture media was removed 24 hours later and stored at −80° C. A 100 μL volume of media was used for the competitive enzyme-linked immunosorbent assay (ELISA). Dopamine was assayed using the Dopamine Research Enzyme Immunoassay kit (Rocky Mountain Diagnostics) following the manufacturer's instructions. PC12 cells, used as a positive control, were grown to 70% confluency (12-well plates) and conditioned media was collected 24 hours later for assay, as above. Secreted DA levels from PC3 and PC12 cells were determined in the presence and absence of 1 μM NSD-1015 (3-hydroxybenzylhydrazine) DDC enzymatic inhibitor (Sigma). All ELISAs were performed in triplicate with two independent trials.

[2] = molecular target: T2, DDC (Homo sapiens, UniProt P20711); test: Dopamine ELISA on conditioned medium of PC3 cells overexpressing DDC; format: cell-based; conditions: 1 μM NSD-1015, 24 hours, 1 nM R1881
T2 construct: expressed in transfected cells; host or cells: PC3 cells, co-transfected with pcDNA3.1-AR
T2 sequence (P20711 1-480): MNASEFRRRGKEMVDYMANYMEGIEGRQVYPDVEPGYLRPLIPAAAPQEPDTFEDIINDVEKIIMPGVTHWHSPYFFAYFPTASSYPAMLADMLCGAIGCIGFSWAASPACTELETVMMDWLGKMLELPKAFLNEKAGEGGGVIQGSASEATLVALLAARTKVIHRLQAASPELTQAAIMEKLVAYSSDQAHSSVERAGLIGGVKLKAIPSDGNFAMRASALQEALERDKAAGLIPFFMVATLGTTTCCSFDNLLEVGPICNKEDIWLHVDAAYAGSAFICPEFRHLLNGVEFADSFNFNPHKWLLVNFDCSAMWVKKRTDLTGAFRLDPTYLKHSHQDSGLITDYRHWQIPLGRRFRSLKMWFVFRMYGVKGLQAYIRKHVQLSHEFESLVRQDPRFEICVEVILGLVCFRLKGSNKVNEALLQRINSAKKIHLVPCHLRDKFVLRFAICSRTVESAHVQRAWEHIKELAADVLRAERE
Procedure: as §1

[3] = system: LNCaP cells; test: MTS cell proliferation assay, androgen-dependent LNCaP cells; format: cell-based, human; conditions: 10 μM, 8 days
Procedure: Cell proliferation assays were performed using the 3-(4,5-dimethylhiazol-2-yl)-5-(3-carboxymethoxyphenyl)-2-(4-sulfophenyl)-2H-tetrazolium Assay (MTS) according to the manufacturer's protocol, with minor modifications (Promega). LNCaP cells were plated in 96-well plates at a density of 3000 cells per well and incubated in RPMI medium containing 5% CSS for one day. On the following day, the DDC inhibitors, carbidopa (25 and 50 μM) and NSD-1015 (10 μM)±0.1 nM R1881 were added to each well in charcoal-stripped serum (CSS; Hyclone, VWR) RPMI media. The cells were harvested at days 0, 2, 4, 6 and 8, with a medium change every 3 days. Each time point was measured with 6 replicates.
(§2) Student's t-test (two-sample equal variance) was used to evaluate statistically significant differences. All calculated p-values were two-sided and those less than 0.05 were considered statistically significant.

[4] = system: C4-2 cells; test: MTS cell proliferation assay, androgen-independent C4-2 cells; format: cell-based, human; conditions: 10 μM, 6 days
Procedure: Cell proliferation assays were performed using the 3-(4,5-dimethylhiazol-2-yl)-5-(3-carboxymethoxyphenyl)-2-(4-sulfophenyl)-2H-tetrazolium Assay (MTS) according to the manufacturer's protocol, with minor modifications (Promega). C4-2 cells were plated in 96-well plates at a density of 750 cells per well in RPMI medium containing 5% CSS for 1 day. On the following day, the DDC inhibitors, carbidopa (25 μM) and NSD-1015 (10 μM)±0.1 nM R1881 were added to each well in charcoal-stripped serum (CSS; Hyclone, VWR) RPMI media. The cells were harvested at days 0, 2, 4, and 6, with a medium change every 3 days. Each time point was measured with 6 replicates.
as §2

[5] = system: LNCaP cells; test: cAMP assay in LNCaP cells; format: cell-based, human; conditions: all concentrations; DA 15 minutes, 5-HT 10 minutes
Procedure: (§3) PC3 and LNCaP cells were seeded in 12-well plates at a density of 1.5×10^5 cells/well. The next day, cells were gently washed three times with serum-free media to remove excess FBS and grown for a further 24 hours in the absence of serum. Cells were then stimulated with various concentrations of DA for 15 minutes or 5-HT for 10 minutes at 37° C. Cells were lysed and intracellular cAMP levels were determined using the cAMP Biotrak Enzymeimmunoassay System (Amersham Biosciences) following the manufacturer's instructions. Assays were performed in triplicate with two independent trials.

[6] = system: AR; test: AR transactivation assay (pARR3-tk-Luc) in AR transfected PC3 cells; format: cell-based, human
Text: (§4) PC3 and LNCaP cells were transfected, treated with R1881 and used for luciferase assays, as described previously. Briefly, human AR expression plasmid (pcDNA3.1-hAR) and AR-regulated luciferase reporters, pARR3-tk-Luc or pPSA-630 bp-Luc (−630/+12 bp of the 5′ PSA flanking region) {Snoek, 1998 #136}, were cotransfected into cells, along with DDC expression plasmid (pDEST12.2-DDC) or control empty vector (pDEST12.2). Firefly luciferase values were normalized to renilla luciferase (PRL-TK reporter; Promega Corp.) and expressed as relative luciferase units (RLU).
Transactivation assays for AR were also performed in PC3 cells treated with dopamine (DA) and serotonin (5-HT, 5-hyroxytyrptamine), which were purchased from Sigma. As described above, cells were transfected with pcDNA3.1-hAR, pRL-TK-renilla and pARR3-tk-Luc reporter but DDC was excluded. Cells were then treated with or without 1 nM R1881 and varying concentrations of pure DA or 5-HT in 5% dextran-coated charcoal stripped FBS (DCC-FBS) for 24 hours before harvest and luciferase assay.

[7] = system: PC3 cells; test: cAMP assay in PC3 cells; format: cell-based
Procedure: as §3

[8] = system: AR; test: Cell-based ligand binding assay in HeLa-AR cells (cytosol); set-up: species or system human
Procedure: HeLa-AR cells were cultured for 24-48 hours in DMEM containing 5% DCC-FBS and seeded onto 6 cm plates at a density of 1×10^6 cells/plate. After 5 hours, cells were transfected with either pDEST12.2-DDC or pDEST12.2 control vector (5 μg/plate) using Lipofectin Reagent (Invitrogen). The next day, transfection mix was changed to DMEM supplemented with 5% DCC-FBS containing increasing concentrations of [^3H]-R1881 (0-10 nM). To determine non-specific binding, hormone treatments were carried out in the presence (NSB) and absence (total binding) of excess cold 1000 nM R1881. After 24 hours of incubation with hormone, cells were harvested as described previously. […]
Cytosolic and nuclear extracts were then thawed and incubated for 6 hours with agarose beads conjugated to FLAG monoclonal antibody (Sigma, USA). […] Beads were washed with Buffer D (20 mM HEPES pH 7.9, 20% glycerol, 0.3 M KCl, 0.2 mM EDTA, 0.05% NP-40, 0.5 mM DTT, 0.5 mM PMSF) and specifically bound ligand (total binding—NSB) to the immunopreciptated FLAG-tagged AR protein was determined by measuring the levels of tritium (dpm) in bead resuspensions using a scintillation counter. All measured bound dpm values were normalized to corresponding Western blot AR protein band intensities. Results were expressed as the relative (normalized to the level of AR protein) mean bound ligand of three replicates (±SEM).

[9] = system: AR; test: AR transactivation assay (pARR3-tk-Luc) in LNCaP cells; format: cell-based, human; conditions: endogenous AR, 24 hours
Text: as §4

[10] = molecular target: T3, AR ligand binding domain (Rattus norvegicus, UniProt P15207); test: In vitro hydroxylapatite pulldown ligand binding assay
T3 construct: purchased PanVera
T3 sequence (P15207 651-882 limits assumed): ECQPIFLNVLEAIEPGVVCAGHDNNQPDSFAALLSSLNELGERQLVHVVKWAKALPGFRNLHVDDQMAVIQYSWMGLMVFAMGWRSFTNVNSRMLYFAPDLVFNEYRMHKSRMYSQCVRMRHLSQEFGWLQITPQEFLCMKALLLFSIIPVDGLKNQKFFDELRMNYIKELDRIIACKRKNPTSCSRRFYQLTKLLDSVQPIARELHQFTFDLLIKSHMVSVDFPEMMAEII
Procedure: Recombinant rat thioredoxin-fused AR ligand binding domain (PanVera, 1.390 mg/mL, 48.4 kDa), which is identical to the human AR-LBD, was used for hydroxylapatite (HAP) pulldown ligand binding assays at R1881 concentrations of 0 to 1000 nM {Portigal, 2002 #86}. Initially, his-tagged-DDC protein was expressed in BL21-SI bacteria, containing the pDEST17-His-DDC plasmid, and purified using a nickel-nitrilotriacetic acid (Ni-NTA)-agarose column according to the manufacturer's protocol (Qiagen). Purified AR-LBD was diluted to a final concentration of 1 μg/mL in binding buffer (50 mM Tris pH 7.5, 10% glycerol, 0.8 M NaCl, 1 mg/mL BSA and 2 mM dithiothreitol), containing tracer 20 nM [^3H]-R1881 (NEN Life Science Products, 75.2 Ci/mmol, 1 mCi/mL). In order to minimize the use of radioactive ligand, supplemental cold R1881 was added to the assay mix to achieve the high 100 nM and 1000 nM total R1881 concentrations. Assays were carried out in the absence and presence of 0.5 μg of His-DDC protein, which was added directly to the 1 mL assay mix. Following overnight incubation at 4° C., a 50% HAP slurry (Calbiochem Fast Flow hydroxylapatite in […] pH 8.0 and 1 mM EDTA) was added to the assay, pellets were incubated on ice for 10 minutes, and then washed four times with wash buffer (40 mM Tris pH 7.5, 100 mM KCl, 1 mM EDTA and 1 mM EGTA). HAP pellets were resuspended in ethanol and bound [^3H]-R1881 was measured (disintegrations per minute, dpm) using a Beckman LS 6500 scintillation counter.
To determine non-specific binding (NSB) to the HAP matrix, control pulldown assays were carried out using an assay mix that lacked AR-LBD. […] NSB values were subtracted from sample measurements for determination of specific binding. The total dpm per assay was determined by measuring a known amount of [^3H]-R1881 and normalizing to the total assay volume (1 mL). All assays were carried out in triplicate and the pmole bound [^3H]-R1881/mg AR-LBD protein was calculated by using the measured dpm of tracer 20 nM [^3H]-R1881. Calculated values were then extrapolated to determine total ligand bound at the 10 nM, 100 nM and 1000 nM R1881 concentrations. Results were expressed as the mean total pmole bound R1881/mg AR-LBD protein (±SEM).

[11] = presence of hormone (0.1 nM R1881)

For `NNCc1cccc(O)c1` [NSD-1015, 3-hydroxybenzylhydrazine], the “reduction of DA levels” value [1] was 2.6 fold, the “secreted DA level” value [1] was 3561±2032 pg/mL CM and the “secreted DA level” value [2] was 220±85 pg/mL CM. For the same molecule, the “decrease in cell growth” value ([3]; absence of hormone) was 1.43 fold, the “decline in cell growth” value [3, 11] was 1.15 fold and the “decrease in cell growth” value ([4]; absence of hormone) was 1.20 fold. The “decline in cell growth” value [4, 11] was 1.24 fold.
With `NCCc1ccc(O)c(O)c1` [DA, dopamine] the “intracellular cAMP response” value [5] was “did not induce a significant cAMP response”, the “repression of ligand-dependent AR transcription” value ([6]; highest 200 μM concentration, 1 nM R1881, 24 hours) was 2.2 fold and the “ligand-independent activation of AR” value ([6]; without R1881, 24 hours) was “not affected”. For the same molecule, the “increase in intracellular cAMP versus untreated cells” value ([7]; maximum 200 μM concentration, 15 minutes) was ~52 fold.
`C[C@]1(O)CC[C@H]2[C@@H]3CCC4=CC(=O)CCC4=C3C=C[C@@]21C` [R1881] was tested, and the “minimum concentration required for activation of AR transcription” value ([6]; PC3 cells transfected with AR, 24 hours) was 0.1 nM, the “amount of R1881 required to reach the control Bmax” value ([8]; presence of DDC (overexpression)) was 0.56 nM and the “R1881 concentration at which control Bmax occurred” value ([8]; vector control) was 1 nM. For the same molecule, the “minimum concentration required for activation of AR transcription” value [9] was 0.1 nM, the “available ligand bound to AR-LBD (ligand-binding efficiency)” value ([10]; 20 nM [3H]-R1881, absence and presence of His-DDC) was “about 5%” and the ligand-binding efficiency ([10]; 100 nM R1881, absence of DDC) was 14%. The “total available ligand bound to AR-LBD” value ([10]; 100 nM R1881, with His-DDC) was 24.5%, the ligand-binding efficiency ([10]; 1000 nM R1881, absence of DDC) was 54% and the “total available ligand bound to AR-LBD” value ([10]; 1000 nM R1881, with His-DDC) was 92%. The “R1881 concentration required to 50% saturate total AR-LBD protein” value ([10]; absence of His-DDC) was 883 nM, the “R1881 concentration required to 50% saturate total AR-LBD protein” value ([10]; presence of His-DDC (0.5 μg/assay)) was 425 nM and the “bound R1881” value ([10]; tracer 20 nM [3H]-R1881, AR-LBD control) was 895±93 pmole bound R1881/mg AR-LBD. For the same molecule, the “bound R1881” value ([10]; tracer 20 nM [3H]-R1881, AR-LBD+His-DDC) was 937±111 pmole bound R1881/mg AR-LBD.
For `NCCc1c[nH]c2ccc(O)cc12` [5-HT, 5-hyroxytyrptamine], the “intracellular cAMP response” value [5] was “did not increase cAMP levels”, the “AR activity in the absence or presence of ligand” value ([6]; 0-100 nM, with or without 1 nM R1881, 24 hours) was “did not alter AR activity” and the “intracellular cAMP response” value ([7]; 5-HT 10 minutes) was “did not increase cAMP levels”.
